This note sets out measurements from US20260001928A1 (CORTERIA PHARMACEUTICALS, priority 2022, published 2026).

The structures appear in SMILES notation. *1 amine or outer side, *2 acyl side, *3 side chain or, on linkers, in order; H or OH if unused. Where a SMILES comes first, the peptide text is derived from it. Side-chain parts run from the residue outwards. [ ]: non-standard residue; d: D form. The star is where a group is joined. C20 diacid = O=C(O)CCCCCCCCCCCCCCCCCCC(=O)*; C16 diacid = O=C(O)CCCCCCCCCCCCCCC(=O)*; γGlu = O=C(O)[C@H](CCC(=O)[*:2])N[*:1]; NMeI = CC[C@H](C)[C@H](NC)C(=O)O; Aib = CC(C)(N)C(=O)O

The experiment relates to human LAD2 cells. In kind it is cell-based. As for the experimental part: LAD2 cells (20000 cells/well, 96-well plates and 10,000 cells/well in 384-well plates) were incubated with compounds for 30 min. The R-hexosaminidase released into the supernatants and in cell lysates was quantified using the fluorogenic substrate 4-methylumbelliferyl-N-acetyl-b-D-glucosaminide.
On the day of the assay, the lyophilized peptides were dissolved in DMSO and/or PBS 1× pH 7.4, to obtain stock solutions. The stock solutions were used to prepare working serial dilutions to have final concentrations in assay ranging from 50, 100 or 300 to 0.1 or 0.001 μM. Each peptide was tested in biological duplicates. When compounds were dissolved in DMSO, the final solvent concentration in assay was 0.5% (v/v).
The percentage of degranulation, expressed as % of R-hexosaminidase release, was calculated by dividing the fluorescence signal of the supernatant by the sum of the signals from the supernatant and cell pellet (lysed with Triton X-100, final 1%) and multiplying by 100.
Dose-response curves were generated by plotting the % of R-hexosaminidase release versus total release of cells treated with triton (y-axis) against the concentrations of peptides tested (x-axis). The Mast Cell Degranulation (MCD) EC50 values and standard errors were calculated using XLfit 5.5.0.5 based on the following equation:
4 Parameter Sigmoidal Model: f=(A+((B−A)/(1+((C/x)^D))))
where A=Emin, B=Emax, C=EC50 and D=slope

Usually EC50 stands for the midpoint of the concentration-response curve. A higher EC50 goes with a need for much substance. Regarding `CC[C@H](C)[C@H](NC(C)=O)C(=O)N[C@H](C(=O)N[C@@H](CC(C)C)C(=O)N[C@@H](CO)C(=O)N[C@@H](CC(C)C)C(=O)N[C@@H](CC(=O)O)C(=O)N[C@@H](C(=O)N1CCC[C@H]1C(=O)N[C@H](C(=O)N[C@@H](CCCCN)C(=O)N[C@@H](CC(C)C)C(=O)N[C@@H](CCCCNC(=O)CC[C@H](NC(=O)CCCCCCCCCCCCCCC(=O)O)C(=O)O)C(=O)N[C@@H](CCCCN)C(=O)N[C@H](C(=O)N[C@@H](CC(C)C)C(=O)N[C@@H](CC(C)C)C(=O)N[C@@H](CCC(=O)O)C(=O)N[C@@H](CCC(N)=O)C(=O)N[C@@H](CCC(=O)O)C(=O)N[C@@H](CCCCN)C(=O)N[C@@H](CCC(N)=O)C(=O)N[C@@H](CCCCN)C(=O)N[C@@H](CCC(=O)O)C(=O)N[C@@H](CCC(N)=O)C(=O)N[C@@H](CCCNC(=N)N)C(=O)N[C@@H](CCC(=O)O)C(=O)N[C@@H](CCC(N)=O)C(=O)N[C@@H](C)C(=O)N[C@@H](CCC(=O)O)C(=O)N[C@H](C(=O)N[C@@H](CC(N)=O)C(=O)NC(C)(C)C(=O)N[C@@H](CCC(N)=O)C(=O)N[C@H](C(=O)N[C@@H](CC(C)C)C(=O)N[C@@H](C)C(=O)N[C@@H](CCC(N)=O)C(=O)N[C@H](C(N)=O)C(C)C)[C@@H](C)CC)[C@@H](C)O)[C@@H](C)CC)[C@@H](C)CC)C(C)C)C(C)C` [Cmpd 168] (Ac-IVLSLD[dV]PIKLK([γGlu-C16 diacid])KILLEQEKQKEQREQAETN[Aib]QILAQV-NH2), the EC50 is > 300 µM.
Turning to `CC[C@H](C)[C@H](NC(C)=O)C(=O)N[C@H](C(=O)N[C@@H](CC(C)C)C(=O)N[C@@H](CO)C(=O)N[C@@H](CC(C)C)C(=O)N[C@@H](CC(=O)O)C(=O)N[C@@H](C(=O)N1CCC[C@H]1C(=O)N[C@H](C(=O)N[C@@H](CCCCN)C(=O)N[C@@H](CC(C)C)C(=O)N[C@@H](CCCCNC(=O)CC[C@H](NC(=O)CCCCCCCCCCCCCCCCCCC(=O)O)C(=O)O)C(=O)N[C@@H](CCCCN)C(=O)N[C@H](C(=O)N[C@@H](CC(C)C)C(=O)N[C@@H](CC(C)C)C(=O)N[C@@H](CCC(=O)O)C(=O)N[C@@H](CCC(N)=O)C(=O)N[C@@H](CCC(=O)O)C(=O)N[C@@H](CCCCN)C(=O)N[C@@H](CCC(N)=O)C(=O)N[C@@H](CCCCN)C(=O)N[C@@H](C)C(=O)N[C@@H](CCC(N)=O)C(=O)N[C@@H](CCCNC(=N)N)C(=O)N[C@@H](CCC(=O)O)C(=O)N[C@@H](CCC(N)=O)C(=O)N[C@@H](C)C(=O)N[C@@H](CCC(=O)O)C(=O)N[C@H](C(=O)N[C@@H](CC(N)=O)C(=O)NC(C)(C)C(=O)N[C@@H](CCC(N)=O)C(=O)N[C@H](C(=O)N[C@@H](CC(C)C)C(=O)N[C@@H](C)C(=O)N[C@@H](CCC(N)=O)C(=O)N[C@H](C(N)=O)C(C)C)[C@@H](C)CC)[C@@H](C)O)[C@@H](C)CC)[C@@H](C)CC)C(C)C)C(C)C` [Cmpd 212] (Ac-IVLSLD[dV]PIKLK([γGlu-C20 diacid])KILLEQEKQKAQREQAETN[Aib]QILAQV-NH2), the EC50 is > 300 µM.
To `CC[C@H](C)[C@H](NC(C)=O)C(=O)N[C@H](C(=O)N[C@@H](CC(C)C)C(=O)N[C@@H](CO)C(=O)N[C@@H](CC(C)C)C(=O)N[C@@H](CC(=O)O)C(=O)N[C@@H](C(=O)N1CCC[C@H]1C(=O)N[C@H](C(=O)N[C@@H](CCCCN)C(=O)N[C@@H](CC(C)C)C(=O)N[C@@H](CCCCNC(=O)CC[C@H](NC(=O)CCCCCCCCCCCCCCCCCCC(=O)O)C(=O)O)C(=O)N[C@@H](CCCCN)C(=O)N[C@H](C(=O)N[C@@H](CC(C)C)C(=O)N[C@@H](CC(C)C)C(=O)N[C@@H](CCC(=O)O)C(=O)N[C@@H](CCC(N)=O)C(=O)N[C@@H](CCC(=O)O)C(=O)N[C@@H](CCCCN)C(=O)N[C@@H](CCC(N)=O)C(=O)N[C@@H](CCCCN)C(=O)N[C@@H](CCC(=O)O)C(=O)N[C@@H](CCC(N)=O)C(=O)N[C@@H](CCCNC(=N)N)C(=O)N[C@@H](CCC(=O)O)C(=O)N[C@@H](CCC(N)=O)C(=O)N[C@@H](C)C(=O)N[C@@H](CCC(=O)O)C(=O)N[C@H](C(=O)N[C@@H](CC(N)=O)C(=O)NC(C)(C)C(=O)N[C@@H](CCC(N)=O)C(=O)N[C@H](C(=O)N[C@@H](CC(C)C)C(=O)N[C@@H](C)C(=O)N[C@@H](CCC(N)=O)C(=O)N[C@H](C(N)=O)C(C)C)[C@@H](C)CC)[C@@H](C)O)[C@@H](C)CC)[C@@H](C)CC)C(C)C)C(C)C` [Cmpd 213] (Ac-IVLSLD[dV]PIKLK([γGlu-C20 diacid])KILLEQEKQKEQREQAETN[Aib]QILAQV-NH2) belongs > 300 µM.
Then `CC[C@H](C)[C@H](NC)C(=O)N[C@H](C(=O)N[C@@H](CC(C)C)C(=O)N[C@@H](CO)C(=O)N[C@@H](CC(C)C)C(=O)N[C@@H](CC(=O)O)C(=O)N[C@@H](C(=O)N1CCC[C@H]1C(=O)N[C@H](C(=O)N[C@@H](CCCCN)C(=O)N[C@@H](CC(C)C)C(=O)N[C@@H](CCCCNC(=O)CC[C@H](NC(=O)CCCCCCCCCCCCCCCCCCC(=O)O)C(=O)O)C(=O)N[C@@H](CCCCN)C(=O)N[C@H](C(=O)N[C@@H](CC(C)C)C(=O)N[C@@H](CC(C)C)C(=O)N[C@@H](CCC(=O)O)C(=O)N[C@@H](CCC(N)=O)C(=O)N[C@@H](CCC(=O)O)C(=O)N[C@@H](CCCCN)C(=O)N[C@@H](CCC(N)=O)C(=O)N[C@@H](CCCCN)C(=O)NC(C)(C)C(=O)N[C@@H](CCC(N)=O)C(=O)N[C@@H](CCCNC(=N)N)C(=O)N[C@@H](CCC(=O)O)C(=O)N[C@@H](CCC(N)=O)C(=O)N[C@@H](C)C(=O)N[C@@H](CCC(=O)O)C(=O)N[C@H](C(=O)N[C@@H](CC(N)=O)C(=O)NC(C)(C)C(=O)N[C@@H](CCC(N)=O)C(=O)N[C@H](C(=O)N[C@@H](CC(C)C)C(=O)N[C@@H](C)C(=O)N[C@@H](CCC(N)=O)C(=O)N[C@H](C(N)=O)C(C)C)[C@@H](C)CC)[C@@H](C)O)[C@@H](C)CC)[C@@H](C)CC)C(C)C)C(C)C` [Cmpd 215] (H-[NMeI]VLSLD[dV]PIKLK([γGlu-C20 diacid])KILLEQEKQK[Aib]QREQAETN[Aib]QILAQV-NH2), with > 100 µM; and `CC[C@H](C)[C@H](NC)C(=O)N[C@H](C(=O)N[C@@H](CC(C)C)C(=O)N[C@@H](CO)C(=O)N[C@@H](CC(C)C)C(=O)N[C@@H](CC(=O)O)C(=O)N[C@@H](C(=O)N1CCC[C@H]1C(=O)N[C@H](C(=O)N[C@@H](CCCCN)C(=O)N[C@@H](CC(C)C)C(=O)N[C@@H](CCCCNC(=O)CC[C@H](NC(=O)CCCCCCCCCCCCCCCCCCC(=O)O)C(=O)O)C(=O)N[C@@H](CCCCN)C(=O)N[C@H](C(=O)N[C@@H](CC(C)C)C(=O)N[C@@H](CC(C)C)C(=O)N[C@@H](CCC(=O)O)C(=O)N[C@@H](CCC(N)=O)C(=O)N[C@@H](CCC(=O)O)C(=O)N[C@@H](CCCCN)C(=O)N[C@@H](CCC(N)=O)C(=O)N[C@@H](CCCCN)C(=O)N[C@@H](C)C(=O)N[C@@H](CCC(N)=O)C(=O)N[C@@H](CCCNC(=N)N)C(=O)N[C@@H](CCC(=O)O)C(=O)N[C@@H](CCC(N)=O)C(=O)N[C@@H](C)C(=O)N[C@@H](CCC(=O)O)C(=O)N[C@H](C(=O)N[C@@H](CC(N)=O)C(=O)NC(C)(C)C(=O)N[C@@H](CCC(N)=O)C(=O)N[C@H](C(=O)N[C@@H](CC(C)C)C(=O)N[C@@H](C)C(=O)N[C@@H](CCC(N)=O)C(=O)N[C@H](C(N)=O)C(C)C)[C@@H](C)CC)[C@@H](C)O)[C@@H](C)CC)[C@@H](C)CC)C(C)C)C(C)C` [Cmpd 217] (H-[NMeI]VLSLD[dV]PIKLK([γGlu-C20 diacid])KILLEQEKQKAQREQAETN[Aib]QILAQV-NH2), with > 300 µM.
To `CC[C@H](C)[C@H](NC)C(=O)N[C@H](C(=O)N[C@@H](CC(C)C)C(=O)N[C@@H](CO)C(=O)N[C@@H](CC(C)C)C(=O)N[C@@H](CC(=O)O)C(=O)N[C@@H](C(=O)N1CCC[C@H]1C(=O)N[C@H](C(=O)N[C@@H](CCCCN)C(=O)N[C@@H](CC(C)C)C(=O)N[C@@H](CCCCNC(=O)CC[C@H](NC(=O)CCCCCCCCCCCCCCCCCCC(=O)O)C(=O)O)C(=O)N[C@@H](CCCCN)C(=O)N[C@H](C(=O)N[C@@H](CC(C)C)C(=O)N[C@@H](CC(C)C)C(=O)N[C@@H](CCC(=O)O)C(=O)N[C@@H](CCC(N)=O)C(=O)N[C@@H](CCC(=O)O)C(=O)N[C@@H](CCCCN)C(=O)N[C@@H](CCC(N)=O)C(=O)N[C@@H](CCCCN)C(=O)N[C@@H](CCC(=O)O)C(=O)N[C@@H](CCC(N)=O)C(=O)N[C@@H](CCCNC(=N)N)C(=O)N[C@@H](CCC(=O)O)C(=O)N[C@@H](CCC(N)=O)C(=O)N[C@@H](C)C(=O)N[C@@H](CCC(=O)O)C(=O)N[C@H](C(=O)N[C@@H](CC(N)=O)C(=O)NC(C)(C)C(=O)N[C@@H](CCC(N)=O)C(=O)N[C@H](C(=O)N[C@@H](CC(C)C)C(=O)N[C@@H](C)C(=O)N[C@@H](CCC(N)=O)C(=O)N[C@H](C(N)=O)C(C)C)[C@@H](C)CC)[C@@H](C)O)[C@@H](C)CC)[C@@H](C)CC)C(C)C)C(C)C` [Cmpd 218] (H-[NMeI]VLSLD[dV]PIKLK([γGlu-C20 diacid])KILLEQEKQKEQREQAETN[Aib]QILAQV-NH2) belongs > 300 µM.
